This note sets out measurements from patent US12077555B2, “STAT degraders and uses thereof” (Kymera Therapeutics, Inc., priority 2019, dated 2024).

As a reminder, the DC50 is the midpoint of the concentration-degradation curve.

A value given as a limit tells only on which side of the number the result lay.

For the assay, the target named is STAT3 (Homo sapiens, UniProt P40763). As to the kind of experiment: STAT3 HiBiT degradation assay in transfected A549 cells. Format: cell-based. Set-up: expressed in transfected cells; host or cells: A549. The note with it: A549, 24 h; read-out: STAT3 HiBiT A549 degradation 24 h: Average external-Abs DC50. The essentials: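 Degradation read as HiBiT-tagged STAT3 luminescence (Nano-Glo lytic reagent, 10 min, room temperature) following 24 h compound treatment of transfected A549 cells at 3-fold, 10 points. Percent remaining signal computed against controls and fitted with a four-parameter logistic; DC50 reported as letter bins (A <0.01 to D >1.0 µM).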
Chain of STAT3 (P40763 whole entry): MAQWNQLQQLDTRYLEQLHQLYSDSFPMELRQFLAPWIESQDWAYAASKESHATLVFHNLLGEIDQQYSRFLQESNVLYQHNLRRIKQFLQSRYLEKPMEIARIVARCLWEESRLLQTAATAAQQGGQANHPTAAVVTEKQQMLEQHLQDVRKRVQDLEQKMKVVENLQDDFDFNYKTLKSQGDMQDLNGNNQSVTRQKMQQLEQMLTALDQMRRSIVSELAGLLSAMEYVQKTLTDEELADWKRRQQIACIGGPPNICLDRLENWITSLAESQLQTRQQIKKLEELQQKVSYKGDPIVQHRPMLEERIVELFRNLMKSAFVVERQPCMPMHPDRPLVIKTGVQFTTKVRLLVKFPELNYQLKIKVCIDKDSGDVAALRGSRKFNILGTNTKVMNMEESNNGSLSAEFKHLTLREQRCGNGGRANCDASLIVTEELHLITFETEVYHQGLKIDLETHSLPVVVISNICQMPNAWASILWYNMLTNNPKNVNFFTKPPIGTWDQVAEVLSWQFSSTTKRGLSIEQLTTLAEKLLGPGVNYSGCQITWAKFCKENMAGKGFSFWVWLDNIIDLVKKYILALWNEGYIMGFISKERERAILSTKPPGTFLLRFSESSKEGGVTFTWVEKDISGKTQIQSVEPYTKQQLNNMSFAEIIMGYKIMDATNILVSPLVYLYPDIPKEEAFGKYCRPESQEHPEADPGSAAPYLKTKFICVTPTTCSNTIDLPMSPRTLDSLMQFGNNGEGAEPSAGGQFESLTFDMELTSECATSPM

`Cc1ncsc1-c1ccc([C@H](C)NC(=O)[C@@H]2C[C@@H](O)CN2C(=O)[C@@H](NC(=O)CCCCCc2cccc(CNC(=O)[C@H](CCC(N)=O)NC(=O)[C@@H]3Cc4cccc5c4N3C(=O)[C@@H](NC(=O)c3cc4cc(C(=O)P(=O)(O)O)ccc4[nH]3)CC5)c2)C(C)(C)C)cc1` [Compound I-220, 2-[[(2S,11S)-2-[[(1S)-3-carbamoyl-1-([[3-(5[[(2S)-1-[(2S,4R)-4-hydroxy-2-[[(1S)-1-[4-(4-methyl-1,3-thiazol-5-yl)phenyl]ethyl]carbamoyl]pyrrolidin-1-yl]-3,3-dimethyl-1-oxobutan-2-yl]carbamoyl]pentyl)phenyl]methyl]carbamoyl)propyl]carbamoyl]-12-oxo-1-azatricyclo[6.4.1.0^[4,13]]trideca-4(13),5,7-trien-11-yl]carbamoyl]-1H-indole-5-carbonylphosphonic acid]: the DC50 was in the range of 100 to 1000 nM. As for `Cc1cc(CCCCCC(=O)N[C@H](C(=O)N2C[C@H](O)C[C@H]2C(=O)N[C@@H](C)c2ccc(-c3scnc3C)cc2)C(C)(C)C)c(F)c(OC[C@H](CCC(N)=O)NC(=O)[C@@H]2Cc3cccc4c3N2C(=O)[C@@H](NC(=O)c2cc3cc(C(=O)P(=O)(O)O)ccc3[nH]2)CC4)c1` [Compound I-266, 2-[[(2S,11S)-2-[[(2S)-4-carbamoyl-1-[2-fluoro-3-(5-[[(2S)-1-[(2S,4R)-4-hydroxy-2-[[(1S)-1-[4-(4-methyl-1,3-thiazol-5-yl)phenyl]ethyl]carbamoyl]pyrrolidin-1-yl]-3,3-dimethyl-1-oxobutan-2-yl]carbamoyl]pentyl)-5-methylphenoxy]butan-2-yl]carbamoyl]-12-oxo-1-azatricyclo[6.4.1.[4,13]]trideca-4(13),5,7-trien-11-yl]carbamoyl]-1H-indole-5-carbonylphosphonic acid], the figure is less than 10 nM; as for `Cc1ncsc1-c1ccc([C@H](C)NC(=O)[C@@H]2C[C@@H](O)CN2C(=O)[C@@H](NC(=O)CCCCCc2cccc(NC(=O)[C@H](CCC(N)=O)NC(=O)[C@@H]3Cc4cccc5c4N3C(=O)[C@@H](NC(=O)c3cc4cc(C(=O)P(=O)(O)O)ccc4[nH]3)CC5)c2)C(C)(C)C)cc1` [Compound I-209], 10 to 100 nM. For `Cc1ncsc1-c1ccc(CNC(=O)[C@@H]2C[C@@H](O)CN2C(=O)[C@@H](NC(=O)CCCCc2ccc(CN(C)C[C@H](CCC(N)=O)NC(=O)[C@@H]3Cc4cccc5c4N3C(=O)[C@@H](NC(=O)c3cc4cc(C(=O)P(=O)(O)O)ccc4[nH]3)CC5)cc2)C(C)(C)C)cc1` [Compound I-179, 2-[[(2S,11S)-2-[[(2S)-4-carbamoyl-1-([[4-(4-[[(2S)-1-[(2S,4R)-4-hydroxy-2-([[4-(4-methyl-1,3-thiazol-5-yl)phenyl]methyl]carbamoyl)pyrrolidin-1-yl]-3,3-dimethyl-1-oxobutan-2-yl]carbamoyl]butyl)phenyl]methyl](methyl)amino)butan-2-yl]carbamoyl]-12-oxo-1-azatricyclo[6.4.1.0^[4,13]]trideca-4(13),5,7-trien-11-yl]carbamoyl]-1H-indole-5-carbonylphosphonic acid] the value was 100 to 1000 nM; for `Cc1ncsc1-c1ccc([C@H](C)NC(=O)[C@@H]2C[C@@H](O)CN2C(=O)[C@@H](NC(=O)CCCCc2ccc(CCC[C@H](CCC(N)=O)NC(=O)[C@@H]3Cc4cccc5c4N3C(=O)[C@@H](NC(=O)c3cc4cc(C(=O)P(=O)(O)O)ccc4[nH]3)CC5)cc2)C(C)(C)C)cc1` [Compound I-237, diammonium 2-[[(2S,11S)-2-[[(3R)-1-carbamoyl-6-[4-(4-[[(2S)-1-[(2S,4R)-4-hydroxy-2-[[(1S)-1-[4-(4-methyl-1,3-thiazol-5-yl)phenyl]ethyl]carbamoyl]pyrrolidin-1-yl]-3,3-dimethyl-1-oxobutan-2-yl]carbamoyl]butyl)phenyl]hexan-3-yl]carbamoyl]-12-oxo-1-azatricyclo[6.4.1.0^[4,13]]trideca-4(13),5,7-trien-11-yl]carbamoyl]-1H-indole-5-carbonylphosphonate], 10 to 100 nM.

`CC(=O)N1CC[C@H]2CC[C@@H](C(=O)N[C@@H](CCC(N)=O)[C@@H](C)OCc3ccc(CCCCC(=O)N[C@H](C(=O)N4C[C@H](O)C[C@H]4C(=O)NCc4ccc(-c5scnc5C)cc4)C(C)(C)C)cc3)N2C(=O)[C@@H](NC(=O)c2cc3cc(C(=O)P(=O)(O)O)ccc3[nH]2)C1` [Compound I-165]: the DC50 was in the range of 100 to 1000 nM. As to `Cc1ncsc1-c1ccc([C@H](C)NC(=O)[C@@H]2C[C@@H](O)CN2C(=O)[C@@H](NC(=O)CCCCCc2cccc(O[C@H](C)[C@H](CCC(N)=O)NC(=O)[C@@H]3Cc4cccc5c4N3C(=O)[C@@H](NC(=O)c3cc4cc(C(=O)P(=O)(O)O)ccc4[nH]3)CC5)c2)C(C)(C)C)cc1` [Compound I-219, 2-[[(2S,11S)-2-[[(3S,4R)-1-carbamoyl-4-[3-(5-[[(2S)-1-[(2S,4R)-4-hydroxy-2-[[(1S)-1-[4-(4-methyl-1,3-thiazol-5-yl)phenyl]ethyl]carbamoyl]pyrrolidin-1-yl]-3,3-dimethyl-1-oxobutan-2-yl]carbamoyl]pentyl)phenoxy]pentan-3-yl]carbamoyl]-12-oxo-1-azatricyclo[6.4.1.0^[4,13]]trideca-4(13),5,7-trien-11-yl]carbamoyl]-1H-indole-5-carbonylphosphonic acid], the half-maximal degradation concentration (DC50) fell in the range of 100 to 1000 nM. As for `Cc1ncsc1-c1ccc(CNC(=O)[C@@H]2C[C@@H](O)CN2C(=O)[C@@H](NC(=O)CCCCCC#CCOC[C@H](CCC(N)=O)NC(=O)[C@@H]2Cc3cccc4c3N2C(=O)[C@@H](NC(=O)c2cc3cc(C(=O)P(=O)(O)O)ccc3[nH]2)CC4)C(C)(C)C)cc1` [Compound I-159], the figure is 100 to 1000 nM. Regarding `Cc1ncsc1-c1ccc(CNC(=O)[C@@H]2C[C@@H](O)CN2C(=O)[C@@H](NC(=O)CCCCc2cccc(OC[C@H](CCC(N)=O)NC(=O)[C@@H]3Cc4cccc5c4N3C(=O)[C@@H](NC(=O)c3cc4cc(C(=O)P(=O)(O)O)ccc4[nH]3)CC5)c2)C(C)(C)C)cc1` [Compound I-221], the DC50 lay in the range of 10 to 100 nM.

With `C/C(=C\C(=O)N[C@H]1CCc2cccc3c2N(C1=O)[C@H](C(=O)N[C@@H](CCC(N)=O)[C@@H](C)OCc1ccc(CCCCC(=O)N[C@H](C(=O)N2C[C@@H](O)C[C@H]2C(=O)NCc2ccc(-c4scnc4C)cc2)C(C)(C)C)cc1)C3)c1ccc(C(F)(F)P(=O)(O)O)cc1` [Compound I-119], the 50% degradation concentration (DC50) is greater than 1000 nM. As for `Cn1c(=O)n(C2CCC(=O)NC2=O)c2ccc(CCCCCCCc3cc4c5c(c3)C[C@@H](C(=O)N[C@@H](CCC(N)=O)C(=O)NC(c3ccccc3)c3ccccc3)N5C(=O)[C@@H](NC(=O)c3cc5cc(C(=O)P(=O)(O)O)ccc5[nH]3)CC4)cc21` (stereo partly drawn) [Compound I-182, 2-[[(2S,11S)-2-[[(1S)-3-carbamoyl-1-(diphenylmethylcarbamoyl)propyl]carbamoyl]-6-[7-[1-(2,6-dioxopiperidin-3-yl)-3-methyl-2-oxo-1,3-benzodiazol-5-yl]heptyl]-12-oxo-1-azatricyclo[6.4.1.0^[4,13]]trideca-4(13),5,7-trien-11-yl]carbamoyl]-1H-indole-5-carbonylphosphonic acid], the figure is 100 to 1000 nM.
